Results published in patent US20250099596A1, “TETRAHYDRONAPHTHALENE COMPOUND, AND PREPARATION METHOD THEREFOR AND USE THEREOF IN MEDICINE” (Jiangsu Hengrui Pharmaceuticals Co., Ltd., priority 2021, published 2025).

Legend:
MCF7/ERα Y537S cells = test: Inhibitory activity on proliferation of ERα mutant-expressing MCF7 cells; format: cell-based; conditions: Homo sapiens, 144 h, 6 days incubation, CellTiter-Glo, read-out: IC50 (nM), inhibition of proliferation of ERα mutant-expressing MCF7 cells
Procedure: The objective of this experiment was to determine the inhibitory activity of the compounds of the present disclosure on the proliferation of ERα mutant-expressing MCF7 cells.
(§1) MCF7 cells expressing the ERα Y537S mutant were constructed by lentiviral infection. MCF7/ERα Y537S cells were cultured in an MEM (GE Healthcare, SH30024.01) complete medium containing 10% fetal bovine serum and 1 g/mL puromycin. On day 1 of the experiment, cells were seeded into a 96-well plate at a density of 3,000 cells/well using MEM containing 2% fetal bovine serum, with each well containing 135 µL of cell suspension. The plate was incubated in a 37° C., 5% CO2 cell incubator overnight. The next day, different concentrations of test compounds prepared in media were added at 15 μL/well. The final concentrations of the compounds were 9 concentration points obtained by 4-fold serial dilution from 1000 nM. A blank control containing 0.5% DMSO was set up. The plate was incubated in a 37° C., 5% CO2 cell incubator for 6 days. On day 8, the 96-well cell culture plate was taken out, and CellTiter-Glo® Luminescent Cell Viability Assay (Promega, G7573) was added at 75 µL/well. After the plate was left at room temperature for 10 min, luminescence signal readings were taken on a multilabel microplate reader (PerkinElmer, VICTOR 3). The IC50 values for the inhibitory activity of the compounds were calculated from the concentrations of the compounds and the luminescence signal readings using Graphpad Prism software.

MCF7 cells = test: Inhibitory effects on MCF7 cell proliferation (CellTiter-Glo); format: cell-based; conditions: Homo sapiens, 144 h, 6 days incubation, read-out: IC50 (nM), inhibition of MCF7 cell proliferation
Procedure: as §1, with “(TCHu74, National Collection of Authenticated Cell Cultures)” for “expressing the ERα Y537S mutant were constructed by lentiviral infection. MCF7/ERα Y537S cells”, “serum.” for “serum and 1 g/mL puromycin.”, “experiment, MCF7” for “experiment,”, “μL” for “µL”, “μL/well.” for “µL/well.”

Structure (SMILES) | IC50 (MCF7/ERα Y537S cells) [nM] | IC50 (MCF7 cells) [nM]
O=C1CC[C@@H](N2Cc3cc(N4CCN(CC5CCN(c6ccc([C@@H]7c8ccc(O)cc8CC[C@@H]7C7CCOCC7)cc6F)CC5)CC4)ccc3C2=O)C(=O)N1 [Example 43, (R)-3-(5-(4-((1-(2-Fluoro-4-((1R,2R)-6-hydroxy-2-(tetrahydro-2H-pyran-4-yl)-1,2,3,4-tetrahydronaphthalen-1-yl)phenyl)piperidin-4-yl)methyl)piperazin-1-yl)-1-oxoisoindolin-2-yl)piperidine-2,6-dione] | 36.3 | 3.57
O=C1CC[C@H](N2Cc3cc(N4CCN(CC5CCN(c6ccc([C@@H]7c8ccc(O)cc8CC[C@@H]7C7CCCC7)cc6F)CC5)CC4)ccc3C2=O)C(=O)N1 [Example 19, (S)-3-(5-(4-((1-(4-((1R,2R)-2-cyclopentyl-6-hydroxy-1,2,3,4-tetrahydronaphthalen-1-yl)-2-fluorophenyl)piperidin-4-yl)methyl)piperazin-1-yl)-1-oxoisoindolin-2-yl)piperidine-2,6-dione] | 5.04 | 0.87
O=C1CC[C@H](N2Cc3cc(N4CCN(CC5CCN(c6ccc([C@@H]7c8ccc(O)cc8CCC78CCOCC8)cc6)CC5)CC4)ccc3C2=O)C(=O)N1 [Example 22, (S)-3-(5-(4-((1-(4-((R)-6-Hydroxy-2′,3,3′,4,5′,6′-hexahydro-1H-spiro[naphthalene-2,4′-pyran]-1-yl)phenyl)piperidin-4-yl)methyl)piperazin-1-yl)-1-oxoisoindolin-2-yl)piperidine-2,6-dione] | 9.19 | 3.13
C[C@H]1CCc2cc(O)ccc2[C@H]1c1ccc(N2CCC(CN3CCN(c4ccc5c(c4)CN([C@H]4CCC(=O)NC4=O)C5=O)CC3)CC2)cc1 [Example 27, (S)-3-(5-(4-((1-(4-((1R,2S)-6-Hydroxy-2-methyl-1,2,3,4-tetrahydronaphthalen-1-yl)phenyl)piperidin-4-yl)methyl)piperazin-1-yl)-1-oxoisoindolin-2-yl)piperidine-2,6-dione] | 44.6 | 13.4
CC(C)[C@H]1CCc2cc(O)ccc2[C@H]1c1ccc(N2CCC(CN3CCN(c4ccc5c(c4)CN([C@H]4CCC(=O)NC4=O)C5=O)CC3)CC2)cc1 [Example 24, (S)-3-(5-(4-((1-(4-((1R,2R)-6-Hydroxy-2-isopropyl-1,2,3,4-tetrahydronaphthalen-1-yl)phenyl)piperidin-4-yl)methyl)piperazin-1-yl)-1-oxoisoindolin-2-yl)piperidine-2,6-dione] | 5.44 | 1.21
O=C1CCC(N2Cc3cc(N4CCN(CC5CCN(c6ccc([C@H]7c8ccc(O)cc8CC[C@H]7C7CCOCC7)cc6)CC5)CC4)ccc3C2=O)C(=O)N1 (stereo partly drawn) [Example 8-2, 3-(5-(4-((1-(4-((1S,2S)-6-Hydroxy-2-(tetrahydro-2H-pyran-4-yl)-1,2,3,4-tetrahydronaphthalen-1-yl)phenyl)piperidin-4-yl)methyl)piperazin-1-yl)-1-oxoisoindolin-2-yl)piperidine-2,6-dione] | 92.2 | 36.5

Continued, values first:

IC50 (MCF7/ERα Y537S cells) [nM] | IC50 (MCF7 cells) [nM] | Structure (SMILES)
39.4 | 13.7 | O=C1CCC(N2Cc3cc(N4CCN(CC5CCN(c6ccc([C@H]7c8ccc(O)cc8CC[C@H]7C7CCOCC7)c(F)c6)CC5)CC4)ccc3C2=O)C(=O)N1 (mixture of isomers) [Example 12-2, 3-(5-(4-((1-(3-Fluoro-4-((1R,2S)-6-hydroxy-2-(tetrahydro-2H-pyran-4-yl)-1,2,3,4-tetrahydronaphthalen-1-yl)phenyl)piperidin-4-yl)methyl)piperazin-1-yl)-1-oxoisoindolin-2-yl)piperidine-2,6-dione]
7.77 | 1.35 | O=C1CC[C@H](N2Cc3cc(N4CCN(CC5CCN(c6ccc([C@@H]7c8ccc(O)cc8CC[C@@H]7C7CCC7)cc6F)CC5)CC4)ccc3C2=O)C(=O)N1 [Example 18-1, (S)-3-(5-(4-((1-(4-((1R,2R)-2-Cyclobutyl-6-hydroxy-1,2,3,4-tetrahydronaphthalen-1-yl)-2-fluorophenyl)piperidin-4-yl)methyl)piperazin-1-yl)-1-oxoisoindolin-2-yl)piperidine-2,6-dione]
